# Assay results published in patent US20240197682A1, “METHOD FOR TREATING NEUROLOGICAL DISEASES USING SUPRAMOLECULE POLYMER THERAPEUTICS” (The Regents of the University of California, priority 2022, published 2024).
# pIC50, pKd: −log10 of the molar value. Like-named read-outs stand apart in the source and are kept apart here.
# Assays:
# [1] = molecular target: T1, YFP-tagged full length 0N4R-Tau P301S aggregates seeded by 416-AD11A lysate (T24 cells) (Homo sapiens, UniProt P10636, P618S); assay: Tau-AD high throughput screening (counter screen) in T24 cells; type: cell-based; details: T24 cells transfected with 416-AD11A lysate
# T1 construct: C-terminally YFP-tagged full length 0N4R-Tau carrying a P301S mutation; expressed in transfected cells
# Description: A fragment of the Middle Tempral Gyrus (MTG) from Alzheimer's Disease (AD) patient 2217 was resuspended in 9 volumes of PBS (ml/g of brain) and homogenized 3×12 seconds using a probe homogenizer (Thomas Scientific) with disposable Omni Tip plastic homogenizing probes (Thomas Scinetific Cat No 3409Y77) to generate a 10% brain homogenate (10% AD11-BH). The 10% AD11-BH was clarified of insoluble debris by centrifugation at 800×g for 5 minutes. The resulting supernatant was collected and the protein concentration of this clarified BH (AD11-CBH) was determined by bicinchoninic acid assay (BCA) (Thermo Fisher Cat No. 23227). HEK293 cells stably expressing a C-terminally Clover-tagged truncated 4R-Tau^243-382 transgene containing the P301L and V337M mutations and a C-terminally Ruby-tagged truncated 3R-Tau^243-382 transgene containing the L266V and V337M mutations (128/139 cells) were transfected with the AD11-CBH using lipofectamine 2000 (LF2K) (Thermo Fisher Cat No. 11668500). Briefly, 0.32 μl of LF2K were diluted in 5 μl Opti-MEM (Thermo Scientific Cat No 31985070) per well of a 384-well plate and incubated for 5 min at room temperature (RT). This mixture was added to 0.32 μg of AD11-CBH diluted in 5 μl of PBS per well of a 384-well plate and vortex briefly. The transfection mixture was incubated at room temperature for 90 min. The transfection complexes were subsequently added to a single well of a 384-well plate containing 3500 128/139 cells. After 3 days the cells were harvested, counted and plated at a density of 1 cell/well in a 96-well plate. A clonal cell line containing Clover and Ruby positive Tau aggregates was selected and termed 416-AD11A cells. Following the expansion of these 416-AD11A cells, a cell lysate was prepared by freeze/thaw. The cells from a confluent T175 flask were harvested in 1 ml of PBS containing 1× protease inhibitor cocktail by scraping. The cell suspension was subjected to 4 cycles of freezing in liquid nitrogen for 5 minutes followed by thawing at 37° C. for 5 minutes. The resulting cell lysate was centrifuged at 2000 RPM for 10 minutes to remove the cell debris and the protein concentration of the resulting 416-AD11A lysate was determined by BCA assay and aliquots frozen for future use.
# HEK293 cells stably expressing C-terminally YFP-tagged full length 0N4R-Tau carrying a P301S mutation (T24 cells) are plated at a density of 4000 cells per well of a 384-well black walled, clear bottom plate (Greiner Cat No 5678-1091Q) in 60 μl of complete DMEM (DMEM (Corning Cat No 10-013-CV), 10% FBS (VWR Cat No 97068-085, 0.5% Penicilin/streptomycin (Gibco Cat No 15140-122)) containing 0.1 μg/ml Hoechst Dye (Thermo Scientific Cat No H3570). Transfection complexes are prepared by diluting 0.15 μg of 416-AD11A lysate or HEK lysate in 5 μl of PBS per well to be transfected and 0.15 μl of Lipofectamine 2000 (LF2K) (ThermoFisher Cat No 11668500) in 5 μl of Opti-MEM per well to be transfected in separate tubes. The pre-diluted 416-AD11A or HEK lysates and LF2K are subsequently mixed and allowed to incubate for 90 minutes at RT. A 10 μl aliquot of the 416-AD11A or HEK transfection complexes is added to the appropriate wells of the 384-well plate containing the T24 cells using the Bravo liquid handling platform (Agilent). Wells A23-P24 of the 384-well plate are transfected with HEK lysate to act as a reference point for spontaneous aggregation of 0N4R^P301S and for transfection related toxicity. The dilution of test compounds is performed using the Bravo liquid handling platform (Agilent). The control is DMSO in the absence of any test compound. Briefly, 1 μl of each test compound (5 mM stock) in the 384-well test plate was transferred to a 384-well plate (Greiner Cat No 781280) containing 61.5 μl of complete DMEM to generate a working stock of compounds at 80 μM. […]
# [2] = Parallel Artificial Membrane Permeability Assay (PAMPA); type: in vitro ADME; details: for PAMPA: P_app: 200 uM test compound, 4 hr; for Papp at 4 hr, 200 uM: PAMPA, read-out: PAMPA: P_app
# [3] = molecular target: tau fibrils (Homo sapiens, UniProt P10636); details: cited from earlier work
# Sequence of tau fibrils (P10636 1-441 isoform P10636-8): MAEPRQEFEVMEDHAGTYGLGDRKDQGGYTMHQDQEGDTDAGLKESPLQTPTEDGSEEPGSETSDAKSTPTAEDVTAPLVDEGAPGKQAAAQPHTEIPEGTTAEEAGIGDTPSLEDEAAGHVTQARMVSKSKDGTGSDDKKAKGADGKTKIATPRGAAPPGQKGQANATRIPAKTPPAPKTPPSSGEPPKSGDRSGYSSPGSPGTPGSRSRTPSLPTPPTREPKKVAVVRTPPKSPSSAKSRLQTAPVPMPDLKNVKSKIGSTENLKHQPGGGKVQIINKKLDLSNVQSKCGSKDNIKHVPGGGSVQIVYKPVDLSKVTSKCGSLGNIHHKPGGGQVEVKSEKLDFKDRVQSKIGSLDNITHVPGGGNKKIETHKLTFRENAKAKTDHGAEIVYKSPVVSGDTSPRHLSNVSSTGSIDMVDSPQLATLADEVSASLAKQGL
# T1 sequence (P10636 1-383 isoform P10636-6 P243S): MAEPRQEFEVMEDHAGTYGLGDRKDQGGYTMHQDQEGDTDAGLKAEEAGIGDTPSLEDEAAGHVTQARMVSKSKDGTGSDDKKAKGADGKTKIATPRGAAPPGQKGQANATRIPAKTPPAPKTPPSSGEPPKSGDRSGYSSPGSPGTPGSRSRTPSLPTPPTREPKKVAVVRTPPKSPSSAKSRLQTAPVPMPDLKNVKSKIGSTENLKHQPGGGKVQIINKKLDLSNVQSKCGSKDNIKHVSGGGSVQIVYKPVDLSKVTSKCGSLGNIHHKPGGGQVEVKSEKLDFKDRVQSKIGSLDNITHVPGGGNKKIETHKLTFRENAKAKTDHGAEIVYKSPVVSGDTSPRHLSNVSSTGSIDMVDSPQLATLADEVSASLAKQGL
AD Tau Aggregates (% control) [1],PAMPA: P_app ([2]; pH 5.0),PAMPA: P_app ([2]; pH 7.4),"Papp at 4 hr, 200 uM ([2]; pH 5.0, 200 uM test compound)","Papp at 4 hr, 200 uM ([2]; pH 7.4, 200 uM test compound)",Compound,"pIC50 ([3]; GTP-1, read-out: measured IC50)","pKd ([3]; tau PET tracer GTP-1, estimated Kd)"
94 % control,4.6 ×10e−6 cm/sec,6.3 ×10e−6 cm/sec,,,COC(=O)Nc1ncc2c(-c3ccccc3)nn(-c3ccccc3)c2n1 [Compound 274],,
95 % control,,,16.5 ×10⁻⁶ cm/s,39.3 ×10⁻⁶ cm/s,"CNC(=O)c1ncc2c(C#Cc3ccccc3)nn(-c3ccc(OC(F)F)cc3)c2n1 [Compound 290, 1-(4-(difluoromethoxy)phenyl)-N-methyl-3-(phenylethynyl)-1H-pyrazolo[3,4-d]pyrimidine-6-carboxamide]",,

# The remaining lines, values behind:
Compound,AD Tau Aggregates (% control) [1],PAMPA: P_app ([2]; pH 5.0),PAMPA: P_app ([2]; pH 7.4),"Papp at 4 hr, 200 uM ([2]; pH 5.0, 200 uM test compound)","Papp at 4 hr, 200 uM ([2]; pH 7.4, 200 uM test compound)","pIC50 ([3]; GTP-1, read-out: measured IC50)","pKd ([3]; tau PET tracer GTP-1, estimated Kd)"
CC(=O)Nc1ncc2c(-c3ccccc3)nn(Cc3ccncc3)c2n1 [Compound 279],92 % control,44.7 ×10e−6 cm/sec,>50 ×10e−6 cm/sec,,,,
CC(=O)Nc1ncc2c(-c3ccccc3)nn(CC3CCCCC3)c2n1 [Compound 280],90 % control,19.5 ×10e−6 cm/sec,19.5 ×10e−6 cm/sec,,,,
"CNC(=O)c1ncc2c(n1)c(-c1ccc(Cl)cc1)nn2-c1ccnc(C(C)(F)F)n1 [Compound 288, 3-(4-chlorophenyl)-1-[2-(1,1-difluoroethyl)pyrimidin-4-yl]-N-methyl-pyrazolo[4,3-d]pyrimidine-5-carboxamide]",98 % control,,>50 ×10e−6 cm/sec,> 50 ×10⁻⁶ cm/s,,,
FCCC1CCN(c2ccn3c(n2)nc2ccccc23)CC1 [GTP-1],,,,,,7.66,7.96
